Results from US12398093B2, “Compounds and methods for treating inflammatory disorders” (Board of Supervisors of Louisiana State University and …, priority 2019, dated 2025).

How the values were obtained:
mice = test: Ovalbumin allergic asthma assay (PenH), nebulized inhaled drug, mice (FIG. 2C); type: in vivo; details: 1.0 mg/kg (FIG. 2C)
Text: (§1) A modification of the ovalbumin model of allergic asthma and whole body plethysmography protocol as described in Nau et al. (Am. J. Physiol. Lung Cell Mol. Physiol. 2015, 308(2): L191-L198; incorporated herein by reference) was used to determine ΔPenh, a measure of airways hyperresponsiveness (AHR), in response to methacholine challenge in adult male Brown Norway rats. Results, shown in FIGS. 2A-2G, represent PenH change measured in the ovalbumin allergic asthma assay in rats, with the exception of FIG. 2C, which was measured in mice, for nebulized inhaled drug. Statistics were performed using 2-way ANOVA with Tukey post hoc test for multiple comparisons.

[1] = test system: adult male Brown Norway rats; test: Ovalbumin allergic asthma model, whole body plethysmography (ΔPenh) after methacholine challenge; type: in vivo; details: rats, nebulized inhaled drug
Text: as §1
Allergic asthma is defined as a chronic inflammatory disorder of the airways. This disease is characterized by airway inflammation, persistent airways AHR and intermittent, reversible airways obstruction.
Area under the curve of PenH values (PenH-AUC) in response to incremental doses of metacholine were calculated for each testing groups, naïve, OVA treated, and OVA+DRUG treated animals. A reduction in PenH-AUC values of more than 75% of the control values (OVA alone) was annotated as a strong efficacy. […] Additional to this information are provided the relative to R-DOI EC50 values (ratio) of tested compounds in 5-HT2AR heterologous cell-based calcium transient assay. […] FIG. 3 illustrates the non-correlative nature of the therapeutic efficacy of the phenylethylamines class of compounds against inflammatory-mediated allergen-induced AHR and the reported evidences of the dose necessary for psychoactive disturbances experienced with these compounds in humans or the potency and strength of these compounds to the 5-HT2AR in calcium transients assays.
Inhibition of ΔPenh as a function of 2C-iBu concentration was studied by nebulization nose-only administration of 2C-iBu to male adult Brown Norway rats as described above. Area under the curve for each treatment group at a given dose of 2C-iBu for ΔPenh is plotted on the Y-axis versus concentration of 2C-iBu on the X-axis.

5-HT2AR-Tango construct = target: T1, 5-HT2AR-Tango construct (Homo sapiens, UniProt P28223); test: β-arrestin-2 recruitment, PRESTO-Tango assay in HTLA cells; type: cell-based; details: for pEC50 beta arrestin recruitment / EMAX (%) beta arrestin recruitment: Table 5; for EMAX (%) beta arrestin recruitment: percentage of 5-HT response
T1 construct: expressed in transfected cells; host or cells: HTLA cells (transient transfection)

human 5-HT2A receptor = target: T2, human 5-HT2A receptor (Homo sapiens, UniProt P28223); test: Gq-mediated calcium transients (calcium mobilization), Fluo-4, HEK cells; type: cell-based; details: for pEC50 calcium mobilization / EMAX (%) calcium mobilization: Table 4; for EMAX (%) calcium mobilization: percentage of 5-HT response; for Emax: HEK293, read-out: EMAX (%) calcium mobilization
T2 construct: expressed in transfected cells
T2 sequence (P28223 whole entry): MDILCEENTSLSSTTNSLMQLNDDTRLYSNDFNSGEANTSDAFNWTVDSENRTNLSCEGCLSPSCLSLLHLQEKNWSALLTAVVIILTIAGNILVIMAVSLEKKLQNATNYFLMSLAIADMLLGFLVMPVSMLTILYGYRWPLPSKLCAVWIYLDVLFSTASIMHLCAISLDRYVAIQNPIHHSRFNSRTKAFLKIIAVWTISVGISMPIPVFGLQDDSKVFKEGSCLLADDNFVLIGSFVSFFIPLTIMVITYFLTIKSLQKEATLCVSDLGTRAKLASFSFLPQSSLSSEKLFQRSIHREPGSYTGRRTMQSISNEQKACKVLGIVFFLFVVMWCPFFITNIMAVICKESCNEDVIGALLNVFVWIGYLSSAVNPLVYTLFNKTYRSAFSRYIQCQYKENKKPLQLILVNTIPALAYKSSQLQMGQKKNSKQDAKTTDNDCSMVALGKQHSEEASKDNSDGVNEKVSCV

T1 sequence (P28223 whole entry, added parts left off): as the sequence (P28223 whole entry) above
T1 sequence (P32121 whole entry partner): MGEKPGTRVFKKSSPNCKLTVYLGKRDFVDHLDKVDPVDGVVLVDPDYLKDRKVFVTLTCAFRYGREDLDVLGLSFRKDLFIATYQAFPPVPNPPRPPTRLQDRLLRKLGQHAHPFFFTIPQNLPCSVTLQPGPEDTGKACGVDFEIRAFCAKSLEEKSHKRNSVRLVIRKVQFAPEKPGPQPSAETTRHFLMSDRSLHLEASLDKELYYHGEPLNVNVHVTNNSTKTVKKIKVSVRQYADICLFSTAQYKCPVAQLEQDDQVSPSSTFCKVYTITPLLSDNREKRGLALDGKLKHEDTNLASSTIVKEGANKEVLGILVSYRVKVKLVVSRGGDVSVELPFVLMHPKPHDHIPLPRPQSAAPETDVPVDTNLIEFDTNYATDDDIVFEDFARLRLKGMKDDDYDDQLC

Structure (SMILES) | EMAX (%) beta arrestin recruitment (5-HT2AR-Tango construct) [%] | pEC50 calcium mobilization (human 5-HT2A receptor) | EMAX (%) calcium mobilization (human 5-HT2A receptor) [%] | also measured
COc1cc(CC(C)N)c(OC)cc1Br (stereo not drawn) [DOB] |  |  |  | Prevention of AHR (PenH) in response to OVA (mice): did not reduce potency
COc1cc(CCNCc2ccccc2OC)c(OC)cc1I [25I-NBOMe] |  |  |  | Prevention of AHR (ΔPenh/PenH) in response to OVA ([1]; 1.0 mg/kg): reduced potency
COc1cc(CCN)c(OC)cc1Br [2C-B] | 39.46 | 8.11 | 78.00 | pEC50 beta arrestin recruitment (5-HT2AR-Tango construct): 5.99
COc1cc(CC(C)N)c(OC)cc1CC(C)C (stereo not drawn) [DOiBu] |  |  |  | EC50 (5-HT2AR-Tango construct): 5.89 nM; Emax (5-HT2AR-Tango construct; HTLA, read-out: EMAX (%) beta arrestin recruitment): 70.2%; EC50 (human 5-HT2A receptor): 4.47 nM; Emax (human 5-HT2A receptor): 90.6%
COc1cc(C(C)C)c(OC)cc1CCN [2C-iP] | 3.46 | 7.59 | 52.07 | pEC50 beta arrestin recruitment (5-HT2AR-Tango construct): 7.8
COc1cc(C(C)C)c(OC)cc1CC(C)N (stereo not drawn) [DOiP] | 20.40 | 8.29 | 73.17 | pEC50 beta arrestin recruitment (5-HT2AR-Tango construct): 8.24
COc1cc(CC(C)(C)C)c(OC)cc1CCN [2C-NP] |  |  |  | EC50 (human 5-HT2A receptor): 155 nM; Emax (human 5-HT2A receptor): 76%
COc1cc(C[C@@H](C)N)c(OC)cc1Br [R-DOB] | 98.14 |  | 79.80 | 
Cl.NCCc1c2c(c(Br)c3c1OCC3)OCC2 [2C-B-Fly.HCl] |  |  |  | Prevention of AHR (ΔPenh/PenH) in response to OVA ([1]; 0.5 mg/kg): significant difference from OVA to naive, and from 2C-B-Fly.HCl+OVA to naive
COc1cc(C(F)(F)F)c(OC)cc1CC(C)N (stereo not drawn) [DOTFM] |  |  |  | Prevention of AHR (ΔPenh/PenH) in response to OVA ([1]; 0.5 mg/kg): significant difference from OVA+DOTFM to naive
COc1cc(CCN)c(OC)cc1I [2C-I] |  | 8.14 | 72.80 | 
COc1ccc(OC)c(CCN)c1 [2C-H] | 10.98 | 6.34 | 69.50 | pEC50 beta arrestin recruitment (5-HT2AR-Tango construct): 7.07
COc1ccc(OC)c(C[C@@H](C)N)c1 [R-2,5-DMA] | 65.51 |  | 108.38 | 
COc1cc(Br)c(OC)c2c1[C@H](CN)C2 [TCB-2] |  |  |  | Prevention of AHR (ΔPenh/PenH) in response to OVA ([1]; 0.5 mg/kg): reduced PenH, it was still significantly elevated over naive controls
